The source of these data is the RepoRT retention time repository.

The structures appear in SMILES notation.

A short description of this data set: Agilent ZORBAX 300 SB-C18, 150 × 1 mm, 3.5 µm; A: water + 0.01% heptafluorobutyric acid; B: acetonitrile + 0.01% heptafluorobutyric acid; gradient (min/%B) 0/0 100/90. To be noted: stereoisomer not certain.
As to `CCCOC(=O)C1CCCCN1` (stereo unspecified), the LC retention time turned out to be 7.95 min.

Regarding `CCn1c2ccccc2c2cc(CNC3CC3)ccc21`, the LC retention time is 10.8 min.

With `Cc1cc(=O)[nH]c(N=C(N)N2CCOCC2)n1`, the LC retention time came out at 6.89 min.

Turning to `CCOC(=O)c1ccc(NC(=O)C(c2ccccc2)c2ccccc2)cc1`, the LC retention time turned out to be 16.9 min.

As to `CC(C)(C)C1=CC(=O)CN(C(C)(C)C)C1`, the LC retention time was found to be 8.19 min.

As for `Cc1cccc(N)c1C`, the LC retention time worked out at 8.05 min.

As for `CCNCCN(C)C`, the LC retention time stood at 7.47 min.

Regarding `Cc1cc(C)nc(N=C(N)Nc2cccc3ccccc23)n1`, the LC retention time came to 10.5 min.

Turning to `CC(=O)c1ccc2c(c1)n(C)c(=O)n2C`, the LC retention time was 9 min.

Turning to `CCc1ccc(N2CC(C(=O)O)CC2=O)cc1` (stereo unspecified), the LC retention time worked out at 10.5 min.

Turning to `Cc1ccc(CN)cc1`, the LC retention time was 7.92 min.

Take `CCCC[N+]1(CCCC)CC[N+](CCCC)(CCCC)CC1`: the LC retention time came to 9.16 min.

As to `COc1ccc(C=NCCC2=CCCCC2)cc1OC`, the LC retention time was 10 min.

On to `Cn1c(=O)c2ccccc2n(CCN)c1=O`, for which the LC retention time was 7.65 min.

`CN(C)C(=O)C1OC(C)(C)OC1C(=O)N(C)C` (stereo unspecified): the LC retention time came to 8.25 min.

In the case of `CCCC(=O)Nc1cccc(C(=O)Nc2ccc(C(=O)O)cc2)c1`, the LC retention time came to 10.5 min.

For `CCN(CC)CCn1cnc2c1c(=O)n(C)c(=O)n2C`, the LC retention time was 7.8 min.

Consider `c1ccc(N2CCN(c3ccccc3)C2c2cccnc2)cc1`, for which the LC retention time worked out at 13 min.

Turning to `CCCCCCCCN1C2=C(C(=O)CC(C)(C)C2)C(c2ccccc2)C2=C1CC(C)(C)CC2=O`, the LC retention time turned out to be 20.9 min.

Take `CCCCCCn1c2ccccc2c2cc(C(=O)O)ccc21`: the LC retention time was 17.8 min.

For `S=C(Nc1ccccc1)N1CCCCC1`, the LC retention time was found to be 12.3 min.

Turning to `Cc1ccc(-c2nn[nH]n2)n1C`, the LC retention time turned out to be 9.09 min.

For `C=CCN(CC=C)CC=C`, the LC retention time worked out at 7.98 min.

As to `CNC(C)C(=O)c1ccccc1` (stereo unspecified), the LC retention time came out at 8.4 min.

As for `CC(C)NC(=O)c1ccc2ccccc2n1`, the LC retention time was 13.1 min.

For the compound `CC(N)Cc1ccc2oc3ccccc3c2c1` (stereo unspecified), the LC retention time was 10.1 min.

Turning to `Cc1ccc(-c2cc(-c3ccc(C)cc3)on2)cc1`, the LC retention time was found to be 18.8 min.

Regarding `CC(C)CNC(=O)C(=O)Nc1ccc(N(C)C)cc1`, the LC retention time was found to be 9.98 min.

Take `NCCCCCCCCN`: the LC retention time is 7.2 min.

`CN1N=C(C(=O)O)CCC1=O`: the LC retention time turned out to be 3.29 min.

With `Cc1n[nH]c(=O)nc1N=NCc1c[nH]c2ccccc12`, the LC retention time was determined as 10 min.

For the compound `Cn1ccnc1`, the LC retention time was 3.76 min.

For `NC(CO)c1ccccc1` (stereo unspecified), the LC retention time came out at 7.02 min.

In the case of `S=C(NN=Cc1cccnc1)Nc1ccccc1`, the LC retention time stood at 9.9 min.

Consider `CC(=O)Nc1ccc(CCC(=O)O)cc1`, for which the LC retention time stood at 7.92 min.

Regarding `CCC1(c2ccccc2)CCC(=O)NC1=O` (stereo unspecified), the LC retention time was determined as 11.5 min.

For the compound `Cc1cc(C)c2c(=O)n(CC(=O)NC(C)CCc3ccccc3)c(=O)n(-c3ccccc3)c2n1` (stereo unspecified), the LC retention time was found to be 15.7 min.

For the compound `Nc1ncnc(N2CCCc3ccccc32)n1`, the LC retention time worked out at 9.57 min.

Regarding `O=C(C[n+]1ccccc1)C1CC1`, the LC retention time was determined as 6.91 min.

Consider `O=C(NC(Cc1ccccc1)C(=O)NCc1ccco1)c1ccccc1` (stereo unspecified), for which the LC retention time was determined as 12.8 min.

In the case of `COC(=O)C(N)CO` (stereo unspecified), the LC retention time was determined as 4 min.

On to `CCCOC(=O)c1ccc(NC(=O)c2ccc(C)cc2)cc1`, for which the LC retention time turned out to be 16.2 min.

As to `CCCNC(=O)c1ccccc1N`, the LC retention time came to 9.35 min.

With `c1coc(-c2c3c(nc4ccc5ccccc5c24)CCCC3)c1`, the LC retention time came out at 13.8 min.

Turning to `OCC1CCCN2CCCCC12` (stereo unspecified), the LC retention time was 6.81 min.

Consider `CC(=O)Nc1c(C)cc(C)cc1N`, for which the LC retention time was found to be 7.92 min.

In the case of `S=C1N=C2CCCCC2C2(CCCCC2)N1` (stereo unspecified), the LC retention time came out at 11.6 min.

`c1ccc2c(c1)[nH]c1ccccc12`: the LC retention time is 14.6 min.

`CC1(C)CC(=O)C=C(NCC2NCCc3ccccc32)C1` (stereo unspecified): the LC retention time amounted to 8.52 min.

As for `CCN(CC)CC(=O)Nc1c(C)ccc(O)c1C`, the LC retention time worked out at 8.16 min.

For the compound `CCCCC(CC)CNCC(CC)CCCC` (stereo unspecified), the LC retention time is 14.2 min.

With `Cc1ccc(-c2nc3ccccc3s2)cc1`, the LC retention time is 17.9 min.

On to `OCC1Cc2ccccc2CN1` (stereo unspecified), for which the LC retention time came to 7.39 min.

With `Cc1ccc(C)c2c1ccn2C`, the LC retention time was found to be 15.8 min.

For `CNC1C(OC2OC(CO)C(N)C(O)C2O)OC2CC(N)C(OC3C(N)CC(N)C(O)C3O)OC2C1O` (stereo unspecified), the LC retention time was found to be 8.39 min.

`CC(=NNC(=O)CNC(=O)C(c1ccccc1)c1ccccc1)c1ccc(N(C)C)cc1`: the LC retention time came to 13.9 min.

For `NC(=O)CCCCCCCCCC(Cc1ccccc1)C(=O)O` (stereo unspecified), the LC retention time came out at 13.3 min.

`Cn1c(=N)n(CC(=O)c2ccccc2)c2ccccc21`: the LC retention time came to 10 min.

For the compound `O=C(NN=Cc1ccc(OCc2ccccc2)cc1)c1ccc(-c2ccccc2)cc1`, the LC retention time was determined as 16.9 min.

As to `CC1(C)CC(NCc2ccncc2)CC(C)(C)N1`, the LC retention time stood at 7.45 min.

In the case of `O=C(NCCOc1ccccc1)Nc1cccc(NC(=O)NCCOc2ccccc2)c1`, the LC retention time is 13.6 min.

As to `CC1(C)CC(NC(=O)C(=O)NC2CC(C)(C)NC(C)(C)C2)CC(C)(C)N1`, the LC retention time amounted to 7.48 min.

As for `c1ccc(-n2cnnn2)cc1`, the LC retention time came out at 9.44 min.

Consider `CCOC(=O)CC1CN(C)CCN1C` (stereo unspecified), for which the LC retention time worked out at 7.31 min.

`Cn1ccc(C(=O)O)cc1=O`: the LC retention time amounted to 5.27 min.

In the case of `CC(=O)C1(O)CCC2C3CC(C)C4=CC(=O)CCC4(C)C3CCC21C` (stereo unspecified), the LC retention time is 15.2 min.

`CNC(C)=O`: the LC retention time is 2.1 min.

In the case of `c1ccc2nc3c(nc2c1)[nH]c1ccccc13`, the LC retention time came to 12 min.

On to `c1ccc2c(NC3=NCCS3)cccc2c1`, for which the LC retention time worked out at 9.27 min.

With `CC1C(=O)CCN(C(C)(C)C)C1C` (stereo unspecified), the LC retention time was determined as 8.44 min.

Turning to `CCn1c(C)n[nH]c1=S`, the LC retention time amounted to 6.98 min.

`C(=Cc1cccs1)c1ccccn1`: the LC retention time came to 9.18 min.

Consider `Cc1ccc(NC(=S)NC2CC(C)(C)NC(C)(C)C2)cc1`, for which the LC retention time was 9.5 min.

In the case of `CC(C)(C)c1ccc(-c2nc3ccccc3s2)cc1`, the LC retention time worked out at 21.3 min.

Take `CCn1cc(-c2ccn[nH]2)c(C)n1`: the LC retention time was 8.21 min.

With `COc1ccc(OC)c2c1C(c1cccc(N)c1)OC1CCCCC21` (stereo unspecified), the LC retention time was found to be 12.9 min.

Consider `CN(C)c1ccc(C=NNC(=O)Cc2n[nH]c(=O)[nH]c2=O)cc1`, for which the LC retention time amounted to 8.47 min.

For `C=CCN1CCC23CCCCC2C1Cc1ccc(O)cc13` (stereo unspecified), the LC retention time turned out to be 9.82 min.

As to `COc1cc(Cc2cnc(N)nc2N)cc(OC)c1OC`, the LC retention time is 8.69 min.

As to `CN1CCCNCC1`, the LC retention time turned out to be 6.55 min.

For the compound `Oc1ccccc1N1CCCCC1`, the LC retention time was 7.89 min.

For `CCc1ncc(C)[nH]1`, the LC retention time was 6.62 min.

With `COc1ccccc1NC(=O)C(=Cc1ccc(OC)c(OC)c1)NC(=O)c1ccccc1`, the LC retention time came to 13.5 min.

For the compound `CC(C)CN`, the LC retention time was determined as 6.34 min.

As for `c1cncc(-c2cc3ccccc3[nH]2)c1`, the LC retention time turned out to be 10.1 min.

Turning to `Nc1ccc(N)nc1`, the LC retention time was determined as 5.45 min.

In the case of `CC(C)(C)c1ccc(C(=O)NCc2ccccc2)o1`, the LC retention time amounted to 14.8 min.

On to `COc1ccc(N2C(=O)C=CC2=O)cc1`, for which the LC retention time worked out at 9.62 min.

Regarding `CCCCCCCCCn1cc[n+](CCCCCCCCC)c1C`, the LC retention time worked out at 17.8 min.

For the compound `c1cc2c(cc1NC1=NCCCCC1)OCCO2`, the LC retention time was 9.12 min.

As to `CC(=O)NC1CCN(C)C2CCCCC12` (stereo unspecified), the LC retention time was determined as 7.11 min.

Regarding `COC(C)C(N)=O` (stereo unspecified), the LC retention time was 2.9 min.

With `Cc1nc2ccccc2nc1CSc1cccc2cccnc12`, the LC retention time is 12.8 min.

As to `O=C1CNCC(=O)N1CCc1ccccc1`, the LC retention time amounted to 9.32 min.

On to `CC(=O)Oc1ccc2c(c1)cc(C)n2C`, for which the LC retention time came to 13.3 min.

With `O=C(Cn1ccc(=O)[nH]c1=O)NCCO`, the LC retention time was 2.12 min.

As to `CCCc1ccc(N)cc1`, the LC retention time amounted to 9.04 min.

In the case of `CCn1c(-c2ccccc2)csc1=Nc1ccc(C)c(C)c1`, the LC retention time was 12.5 min.

Regarding `O=C(C=Cc1ccccc1)c1cc2ccccc2o1`, the LC retention time was determined as 16.7 min.

As to `CCC(C)N1CNc2c(c(=O)[nH]c(=O)n2-c2ccc(C)c(C)c2)C1` (stereo unspecified), the LC retention time stood at 8.26 min.

For the compound `CCN(CC)CCNC(=O)c1ccccc1NC(=O)Nc1ccccc1`, the LC retention time was determined as 9.62 min.

Consider `Cc1cccc(C)n1`, for which the LC retention time turned out to be 6.46 min.

As to `COC(=O)c1ccccc1-c1cc(C(=O)OC)c2ccccc2n1`, the LC retention time is 15 min.

As for `O=C(O)c1cc(-c2ccccc2)c(C(=O)O)cn1`, the LC retention time worked out at 6.42 min.

As to `CC(C)(C)NCC(O)COc1cccc2c1CCC(=O)N2` (stereo unspecified), the LC retention time worked out at 8.4 min.

For `O=C1Cc2ccccc2N1`, the LC retention time was 8.51 min.

For `Nc1ccccn1`, the LC retention time is 6.12 min.

On to `NNC(=O)C(O)C(O)C(=O)NN` (stereo unspecified), for which the LC retention time is 1.94 min.

With `Cc1ccc2[nH]c(=O)c(C=NC(CO)(CO)CO)c(O)c2c1`, the LC retention time is 7.75 min.

On to `CCCCOC(=O)CCc1n[nH]c(=O)[nH]c1=O`, for which the LC retention time is 9.57 min.

For `O=c1nc(N2CCOCC2)nc(N(c2ccccc2)c2ccccc2)[nH]1`, the LC retention time came to 10.5 min.
